Data: publication PMC5526551, “New hydrazonoindolin-2-ones: Synthesis, exploration of the possible anti-proliferative mechanism of action and encapsulation into PLGA microspheres” (PLoS ONE, 2017)

What was measured:
A549 [1] = assay: Anti-proliferative activity, cell growth inhibition (CellTiterGlo, 72 h); type: cell-based, human; details: Homo sapiens; for IC50: A549, 72 h, read-out: IC50 A-549; for inhibition at 30 µM: A549, quadruplicate, read-out: Cell growth inhibitory activity, A-549
Experimental: (§1) Twenty compounds, i.e. 4a-o and 7a-e, were analyzed for cancer cell growth inhibitory activity. These studies were carried out using cells derived from human lung, colon and breast tumors (A549, HT-29 and ZR-75 cells, respectively). This initial assessment of activity tested each compound in quadruplicate at a single concentration of 30 μM, if solubility permitted.
(§2) A549, HT-29, ZR-75 were obtained from the American Type Culture Collection (ATCC). Cells were harvested from 90-95% confluent 10 cm dishes, and diluted in growth media (RPMI-1640 supplemented with 5% fetal bovine serum). An appropriate concentration of cells were prepared to add 1,250 cells in a volume of 25 µL per well in tissue culture treated Griener 384-well microplates, then incubated overnight at 37°C. Compound 7e was diluted to a concentration of 30 µM in DMSO. Concentrated dosing solutions of twice the final concentration were prepared by dilution of the DMSO stocks 1:500 in growth media. Two-fold serial dilutions were then prepared in medium containing 0.2% DMSO to maintain a constant concentration of vehicle throughout the concentration range of the compound. Each of these was added in an equal volume (25 µL) to four wells on each cell assay plate, along with the vehicle control. The highest concentration for serial dilutions of the positive control (sunitinib) was prepared exactly as the experimental compound 7e. Cells were incubated with the compounds for a further 72 h.
(§3) At the end of the treatment period, assay plates were allowed to cool to RT for 10 min prior to the addition of 25 µL per well Promega CellTiterGlo reagent, followed by additional 10 min incubation at RT. The resulting luminescence was quantitated using a Molecular Devices Spectramax Paradigm.
(§4) Percent growth inhibition was calculated as follows, where 100 represents the viability of vehicle treated control samples:
(§5) The potency of compounds was determined using the non-linear dose response algorithm (four-parameter logistic fit) with GraphPad Prism 5 software.

HT-29 = assay: as above; type: cell-based, human; details: Homo sapiens; for IC50: HT-29, 72 h, 72 h; for inhibition at 30 µM: HT-29, quadruplicate, read-out: Cell growth inhibitory activity, HT-29
Experimental: as §1, §2, §3, §4, §5

ZR-75 = assay: as above; type: cell-based, human; details: Homo sapiens; for IC50: ZR75, 72 h; for inhibition at 30 µM: ZR75, quadruplicate, read-out: Cell growth inhibitory activity, ZR-75
Experimental: as §1, §2, §3, §4, §5

[2] = In vitro 7e release (vial method, phosphate buffer pH 7.4); type: physicochemical; details: after 5 days, pH 7.4, 37°C
Experimental: In vitro7e-release: Studies on the in vitro release of 7e from microspheres were carried out using the vial method as reported by Dubey et al.. Compound 7e-PLGA-microspheres containing 5 mg equivalent of compound 7e were suspended in a vial containing phosphate buffer (10 mL, pH 7.4) with 0.3% Tween 80 to improve the solubility of 7e. The vial was incubated in a water bath at 37 ± 0.5°C and vibrated horizontally at speed of 100 rpm. In vitro 7e release was assessed by intermittently sampling the vial (2 mL) at predetermined time intervals (1, 2, 3, 4, 5, 6, 10, 12, 15, 18, 20 and 21 days), then replacing the volume with 2 mL of fresh phosphate buffer.
In vitro 7e release was assessed in phosphate buffer (pH 7.4) containing a surfactant to simulate the physiological milieu and maintain sink conditions. Samples were incubated at 37°C, and the amount of 7e was determined using a UV spectrophotometer. […] On the other hand, the release of compound 7e from the raw powder was faster than its release from the microspheres, as 65% of 7e was released after 5 days. This uncontrolled burst release of compound 7e from raw powder could result in too high local concentration which could lead to severe local tissue injure and hamper appropriate delivery to the target.

A549 [3] = assay: Cell viability assay of free 7e and 7e-loaded microspheres; type: cell-based, human
Experimental: Cell viability assay: The cell viability assay was performed as described in the section of anti-proliferative activity in the supplementary materials.
The human lung cancer A549 cell line was incubated with various concentrations (0.8, 1.6, 3.13, 6.25, 12.5, 25 and 50 μM) of both free 7e and 7e-loaded microspheres to evaluate the anti-proliferative activity by assessing their effect on cell viability.
as §2, with “Cells were incubated with the compounds for a further 72 h.” left out
as §3

| Compound | IC50 (A549 [1]) [µM] | inhibition at 30 µM (A549 [1]) [%] | IC50 (HT-29) [µM] | inhibition at 30 µM (HT-29) [%] | IC50 (ZR-75) [µM] | inhibition at 30 µM (ZR-75) [%] | Cumulative in vitro release of 7e [2] [%] | Reduction in cell viability (A549 [3]; A549, 0.8 μM, 24 h) | Reduction in cell viability (A549 [3]; A549, 1.6 μM, 24 h) | Reduction in cell viability (A549 [3]; A549, 1.6 μM, 72 h) [%] | Reduction in cell viability (A549 [3]; A549, 3.1 μM, 72 h) [%] | Reduction in cell viability (A549 [3]; A549, 3.1 μM, 120 h) | Reduction in cell viability (A549 [3]; A549, 3.13 μM, 24 h) [%] | Reduction in cell viability (A549 [3]; A549, 6.25 μM, 24 h) | IC50 (A549 [3]; Homo sapiens, A549, 24 h of incubation, read-out: IC50 toward A549 cells) [µM] | melting point [°C] |
| --- | --- | --- | --- | --- | --- | --- | --- | --- | --- | --- | --- | --- | --- | --- | --- | --- |
| O=C1Nc2ccc(Br)cc2C1=NN=C1C(=O)N(Cc2ccccc2)c2ccccc21 [Compound 7e, 1-Benzyl-3-((5-bromo-2-oxoindolin-3-ylidene)hydrazono)indolin-2-one] | 2.83 | 97.1 ± 3.3 | 2.49 | 95.7 ± 4.2 | 1.79 | 96.1 ± 4.6 | 65 | no cytotoxicity | no cytotoxicity | 30 | 70 | almost total inhibition | 20 | remarkable reduction | 6.51 | 265 to 267 |
| CCN(CC)CCNC(=O)c1c(C)[nH]c(/C=C2\C(=O)Nc3ccc(F)cc32)c1C [Sunitinib, sunitinib, reference compound] | 5.87 | 85.7 ± 2.7 | 10.1 | 59.5 ± 2.3 | 8.31 | 90.7 ± 4.5 |  |  |  |  |  |  |  |  |  |  |
